For assay [1], the system named is human kidney proximal tubule cells. The experiment in a line: Apoptosis of human kidney proximal tubule cells in culture. The class given is cell-based. The protocol: (§1) Apoptosis Assay (TUNEL): Nuclear DNA fragmentation consistent with apoptosis was determined by the method of TdT-mediated dUTP-biotin nick-end labeling (TUNEL) (Y. Gavrieli et al., J. Cell. Biol. 119:493-501, 1992). The ApopDetek cell death assay kit (Enzo, Farmingdale, N.Y.) was used utilizing terminal deoxynucleotide transferase to incorporate Bio-16-dUTP onto the 3′-OH termini in the DNA of apoptotic cells, subsequent binding with streptavidin-horseradish peroxidase, and visualization after conversion of the substrate and chromagen (hydrogen peroxide and aminoethylcarbazole) into a localized brick red precipitate. A blue counter stain was also used. Slides were then observed for morphologically irregular and condensed nuclei which contain dark red precipitate to indicate TUNEL-positive cells using a Nikon (Nikon, Inc., Melville, N.Y.) Optiphot microscope. Five to six random field totaling approximately 1,000 to 1,500 cells were counted per slide. Apoptotic index (AI), defined as the percent of cells undergoing apoptosis, is calculated by dividing the number of positive nuclei by the total number of nuclei counted multiplied by 100.

The next assay deals with LLC-PK1 cells. Kind of assay: TUNEL apoptosis assay (apoptotic index) in cultured LLC-PK1 cells. It counts as cell-based, pig. The settings on record: for Apoptotic activity (in words): substance alone; for AI: 2 h. The protocol: Cell Culture and Assay Protocol. LLC-PK1, a pig kidney epithelial cell line was plated at a density of 10^3 cells per well into eight-well Permanox plastic chamber slides (NUNC, Naperville, Ill.). The cells were cultured at 37° C. in 5% CO2 in humidified incubators and grown for 3 days to 70-80% confluency in DMEM-F12 that was supplemented with 10% fetal calf serum, 7.5% sodium bicarbonate, 15 mM HEPES, 200 mM L-Glutamate, 100 u penicillin and 0.1 ug/ml streptomycin (Life Technologies, Gaithersburg, Md.). The culture fluid was then removed and cells were exposed to plasma from control individuals, Alzheimer's disease patients or multi-infarct dementia patients diluted 1:5 in fresh DMEM-F12 media, supplemented as above, for 2 h at 37° C. The cells were then rinsed in PBS, and fixed in 4% formaldehyde in PBS for 10 min., permeabilized with 0.5% Triton X-100 (Sigma Chemical CO., St. Louis, Mo.) for 5 min. and washed in 4 changes of distilled water. A positive control was obtained by exposing cells to 0.6 mM H2O2 diluted in DMEM-F12 for 2 h.
as §1, with “100. […]” for “100.”
Effect of Protein Synthesis on Apoptotic Activity. LLC-PK1 cells were exposed to Alzheimer's disease and control plasma in the absence and presence of cycloheximide (0.2-200 uM) (Sigma, St. Louis, Mo.). Apoptotic index was measured in these cells by TUNEL assay.
Effect of Calcium Depletion on Factor Activity. The TUNEL assay was performed in the usual manner except for substituting DMEM-F12 with calcium-free DMEM, supplemented with dialyzed 10% fetal calf serum (Life Technologies, Grand Island, N.Y.) and 0.6 mM EGTA to chelate calcium. Dialyzed Alzheimer's disease and control plasma were then added to the calcium-free media for 2 h at 37° C. and a TUNEL assay performed.
Contribution of Known Apoptotic Inducers. To test the possibility that the apoptotic factor in Alzheimer's disease plasma was β amyloid, TNF-α or myeloma light chain, the TUNEL assay was repeated as above after a 2 h incubation at 37° C. with […] β amyloid (Peninsula Laboratories, Inc., Belmont, Calif.), 5 pM-3 nM TNF-α (Quantikine, Minneapolis, Minn.) and 3-60 ug λ myeloma light chain, kindly supplied by Dr. Vecihi Batuman, Tulane University School of Medicine, New Orleans, La. To eliminate the possibility that a protease in Alzheimer's disease plasma is responsible for the apoptotic activity, the effect of a broad spectrum protease inhibitor cocktail (Boehringer Mannheim) was studied on apoptotic index using the TUNEL assay. LCC-PK1 cells were incubated with Alzheimer's disease plasma with and without the inhibitor cocktail and assayed as detailed above. This cocktail inhibits a large spectrum of serine, cysteine, and metalloproteases as well as calpains. It consists of aprotinin, leupeptin, EDTA, and pefabloc.

From patent US6458549B2, “Methods of diagnosing renal salt wasting syndrome and Alzheimer's disease and methods of treating the same” (Winthrop-University Hospital, priority 1998, dated 2002) come the findings set out here.

Entries after “also recorded” stand apart in the source; their conditions may differ.

Turning to `CCCCC[C@H](O)/C=C/[C@H]1C(=O)C[C@H](O)[C@@H]1C/C=C\CCCC(=O)O` [Prostaglandin D, prostaglandin D2], in assay [1] (substance alone), the “Effect on apoptosis (in words)” value was “did not increase apoptosis”.
With `CCCCC[C@H](O)C/C=C1/C(=O)C=C[C@@H]1C/C=C\CCCC(=O)O` [-Δ^12Prostaglandin J2], in the assay on LLC-PK1 cells, the “Apoptotic activity (in words)” value is “increases the rate of apoptosis”. In addition, the “Effect on apoptosis (in words)” value was “increased apoptosis” in assay [1] (addition of Δ12Prostaglandin J2 to Indomethacin); “increased apoptosis” in assay [1] (combination of Indomethacin, Prostaglandin D2 Synthase and Δ12Prostaglandin J2); “induces apoptosis; also recorded: increased apoptosis to the same degree as prostaglandin D2 synthase” in assay [1] (substance alone); “induces apoptosis” in assay [1] (substance alone, listed as -Δ^12prostaglandin J2).
Consider `CCCCC[C@H](O)/C=C/[C@@H]1[C@@H](C/C=C\CCCC(=O)O)[C@@H]2C[C@H]1OO2` [Prostaglandin H, prostaglandin H2], for which the “Effect on apoptosis (in words)” value in assay [1] (substance alone) was “did not increase apoptosis”.
With TNF-α, in the assay on LLC-PK1 cells (doses as high as 50 pM), the AI is listed as 6%.
In the case of `COc1ccc2c(c1)c(CC(=O)O)c(C)n2C(=O)c1ccc(Cl)cc1` [Indomethacin], the “Effect on apoptosis (in words)” value is on record as “did not increase apoptosis above baseline” in assay [1] (simultaneous addition of Indomethacin and Prostaglandin D2 Synthase); “inhibited apoptosis to baseline” in assay [1] (substance alone).
Consider `C[C@@H]1C[C@@H]([C@H](O)CC2CC(=O)NC(=O)C2)C(=O)[C@@H](C)C1` [Cycloheximide, cycloheximide], for which the results for the “Effect on apoptosis by Alzheimer's disease plasma (in words)” value in the assay with LLC-PK1 cells (200 uM cycloheximide) and with LLC-PK1 cells (lower concentrations of cycloheximide) were “inhibition of apoptosis” and “no inhibition of apoptosis”, respectively. For the same molecule, the “AI (%)” value in the assay with LLC-PK1 cells (cycloheximide 200 uM, cells exposed to Alzheimer's plasma) is reported as 7.7 ± 1.6%; in the assay on LLC-PK1 cells (cycloheximide 200 uM, cells exposed to control plasma) it was 6.3 ± 1.5%; in the assay on LLC-PK1 cells (cycloheximide 0.2-20 uM, cells exposed to Alzheimer's plasma) it was 28.7 ± 4.0%; in the assay on LLC-PK1 cells (cycloheximide 0.2-20 uM, cells exposed to control plasma), 5.0 ± 0.0%.
As to `CCN1C(=O)C=CC1=O` [N-Ethyl Maleimide], in assay [1] (deactivation/inhibition of Prostaglandin D2 Synthase by N-Ethyl Maleimide), the “Effect on apoptosis (in words)” value is recorded as “inhibited apoptosis”.
In the case of Prostaglandins E [Prostaglandin E], the “Effect on apoptosis (in words)” value in assay [1] (substance alone) is listed as “did not increase apoptosis”.
In the assay with LLC-PK1 cells (50 uM in media), β-amyloid came in with an AI of 6.1±3.1%. Moreover, the “Apoptotic activity (in words)” value in the assay on LLC-PK1 cells is listed as “No detectable apoptotic activity”.

B1: α1 microglobulin: protein co-found in the 32 Kd band from urine of a renal salt wasting patient (protein, UniProt P02760 20-203, looked up)
Alpha-1-microglobulin: GPVPTPPDNIQVQENFNISRIYGKWYNLAIGSTCPWLKKIMDRMTVSTLVLGEGATEAEISMTSTRWRKGVCEETSGAYEKTDTDGKFLYHKSKWNITMESYVVHTNYDEYAIFLTKKFSRHHGPTITAKLYGRAPQLRETLLQDFRVVAQGVGIPEDSIFTMADRGECVPGEQEPEPILIPRV
modifications: Alpha-1-microglobulin
notes: protein co-found in the 32 Kd band from urine of a renal salt wasting patient
On to B1, for which the “Apoptotic activity (in words)” value with LLC-PK1 cells is “no apoptotic activity”.

B2: Prostaglandin D2 Synthase: enzyme that converts prostaglandin H2 to prostaglandin D2; identified apoptotic factor (protein, UniProt P41222 23-190, looked up)
Prostaglandin-H2 D-isomerase: APEAQVSVQPNFQQDKFLGRWFSAGLASNSSWLREKKAALSMCKSVVAPATDGGLNLTSTFLRKNQCETRTMLLQPAGSLGSYSYRSPHWGSTYSVSVVETDYDQYALLYSQGSKGPGEDFRMATLYSRTQTPRAELKEKFTAFCKAQGFTEDTIVFLPQTDKCMTEQ
B2: in assay [1] (substance alone), the “Effect on apoptosis (in words)” value was “increased apoptosis” and the “Increase of apoptosis above control” value is “about four times above control”.
